Assay results taken from patent publication US20100009935A1, “RESISTANCE-REPELLENT […] INHIBITORS” (priority 2002, published 2010).
Like-named read-outs stand apart in the source and are kept apart here.

How the values were obtained:
Type in all cases: cell-based
HIV-2EHO = experiment: Drug sensitivity of HIV-2EHO in MT-2 cells, MTT assay; details: HT-2 (footnote: MT-2 cells), day 7, read-out: MEAN IC50 (μM) ± SDs
Protocol: (§1) The sensitivities of HIV-1LAI, HIV-1Ba-L, HIV-2EHO and the primary HIV-1 isolates against various drugs were determined as previously described with minor modifications (Shiraska et al., Proc. Natl. Acad. Sci. USA, 92, 2398-2402 (1995)).

[1] = system: HIV-1ERS104pre (wild-type clinical strain); experiment: PI sensitivity of wild-type clinical isolate in PHA-PBMC, p24
HIV-1 clinical isolate 2 = experiment: PI sensitivity of PI-resistant clinical isolate 2 in PHA-PBMC, p24; details: isolate 2: L10I, I15V, K20R, N36I, H46L, I54V, K55R, I62V, L63P, K70D, V82A, L89N, PHA-PBMC, p24
HIV-1 clinical isolate 3 = experiment: PI sensitivity of PI-resistant clinical isolate 3 in PHA-PBMC, p24; details: isolate 3: L10I, I15V, E35D, N37E, K45R, I54V, L63P, A71V, V82I, L90N, I93L, C95F, PHA-PBMC, p24
HIV-1 clinical isolate 4 = experiment: PI sensitivity of PI-resistant clinical isolate 4 in PHA-PBMC, p24; details: isolate 4: L10I, V11I, T12E, I15V, L19I, B41K, H46L, L63P, A71T, V82A, L90M, PHA-PBMC, p24
HIV-1 clinical isolate 5 = experiment: PI sensitivity of PI-resistant clinical isolate 5 in PHA-PBMC, p24; details: isolate 5: L10I, K43T, N46L, I54L, L63P, A71T, V82A, L90N, D92K, PHA-PBMC, p24
HIV-1 clinical isolate 8 = experiment: PI sensitivity of PI-resistant clinical isolate 8 in PHA-PBMC, p24; details: isolate 8: L10R, H37D, N46I, I62V, L63P, A71V, G73S, V77I, V82T, L90M, I93L, PHA-PBMC, p24
[2] = system: highly cross-resistant HIV-1 strains derived from AIDS patients; details: for antiviral activity against patient isolates with multiple mutations compared with wild type HIV strains (in words): multidrug resistant patient isolates
HIV-1UIC-P62 = experiment: PI sensitivity of compound 1-selected HIV-1UIC-P62 in MT-2 cells, MTT assay; details: HIV-1UIC-P62 (L10F, A28S, M46I, I50V, A71V, N88D), day 7
HIV-1APV-P30 = experiment: PI sensitivity of APV-selected HIV-1APV-P30 in MT-2 cells, MTT assay
HIV-1Ba-L = experiment: microbe, parasite or virus in culture; details: Human immunodeficiency virus 1, 168 h, PBNC (PHA-PBMC), p24 production, day 7, read-out: MEAN IC50 (μM) ± SDs
Protocol: as §1

HIV-1LAI = experiment: microbe, parasite or virus in culture; details: day 7, read-out: MEAN IC50 (μM) ± SDs
Protocol: as §1

HIV-1 clinical isolate 1 = experiment: PI sensitivity of PI-resistant clinical isolate 1 in PHA-PBMC, p24; details: Human immunodeficiency virus 1; isolate 1: L10I, K14R, L33I, N36I, H46I, F53L, K55R, I62V, L63P, A71V, G73S, V82A, L90M, I93L; PHA-PBMC, p24
HIV-1 clinical isolate 6 = experiment: PI sensitivity of PI-resistant clinical isolate 6 in PHA-PBMC, p24; details: Human immunodeficiency virus 1; isolate 6: L10I, K14R, B41K, H46L, I54V, L63P, A71V, V82A, L90M, I93L; PHA-PBMC, p24
HIV-1 clinical isolate 7 = experiment: PI sensitivity of PI-resistant clinical isolate 7 in PHA-PBMC, p24; details: Human immunodeficiency virus 1; isolate 7: L10I, L24I, L33F, E35D, H36I, H37S, N46L, I54V, R57K, I62V, L63P, A71V, G73S, V82A; PHA-PBMC, p24
HIV-1NL4-3 = details: Human immunodeficiency virus 1, MT2, 168 h; HIV-1NL4-3 (wild type), MT-2 cells, MTT assay, day 7
[3] = Human immunodeficiency virus 1, 168 h, PBMC (PHA-PBMC), p24 production
[4] = Human immunodeficiency virus 1, MT2, 168 h, HT-2 (footnote: MT-2 cells), MTT assay
[5] = Human immunodeficiency virus 2, MT2, 168 h
[6] = Human immunodeficiency virus 1, MT2, 168 h

Compound `COc1ccc(S(=O)(=O)N(CC(C)C)C[C@@H](O)[C@H](Cc2ccccc2)NC(=O)O[C@H]2CO[C@H]3OCC[C@H]32)cc1` [UIC-94003] has an IC50 (HIV-2EHO) of 0.0005 ± 7e-05 µM, an IC50 ([1]; wild type HIV-1ERS104pre (L63P), PHA-PBMC, p24, read-out: IC50) of 0.0007 µM and an IC50 (HIV-1 clinical isolate 2) of 1.3 nM. It also gave an IC50 (HIV-1 clinical isolate 3) of 1 nM, an IC50 (HIV-1 clinical isolate 4) of 1.6 nM and an IC50 (HIV-1 clinical isolate 5) of 2.4 nM. The IC50 (HIV-1 clinical isolate 8) was 1 nM, the IC50 ([2]; eight highly PI-resistant clinical isolates, PHA-PBMC, read-out: IC50 values, range over all eight isolates) was 0.5 to 5.5 nM and the “antiviral activity against patient isolates with multiple mutations compared with wild type HIV strains (in words)” value [2] was “equivalent”. For the same compound, the IC50 (HIV-1UIC-P62) was 21 nM and the IC50 (HIV-1APV-P30; HIV-1APV-P30 (L10F, V32I, M46I, I54M, A71V, I84V), MT-2 cells, MTT assay, day 7, read-out: IC50) was 29 nM.

With `Nc1ccn([C@@H]2CS[C@H](CO)O2)c(=O)n1` [Compound 3TC, LAMIVUDINE] the IC50 (HIV-1Ba-L) was 0.054 ± 0.046 µM, the IC50 (HIV-1LAI; [3]) was 0.021 ± 0.018 µM and the IC50 (HIV-1LAI; [4]) was 0.66 ± 0.01 µM. For the same compound, the IC50 (HIV-2EHO; [5]) was 0.4 ± 0.25 µM.

In the case of `Cc1c(O)cccc1C(=O)N[C@@H](CSc1ccccc1)[C@H](O)CN1C[C@H]2CCCC[C@H]2C[C@H]1C(=O)NC(C)(C)C` [NFV, Nelfinavir], the IC50 (HIV-1LAI; [3]) is reported as 0.009 ± 0.0003 µM, the IC50 (HIV-1LAI; [4]) is reported as 0.005 ± 0.002 µM and the IC50 (HIV-2EHO; [5]) is reported as 0.02 ± 0.01 µM. For the same compound, the IC50 ([1]; Human immunodeficiency virus 1, read-out: IC50 μM) was 0.023 µM, the IC50 (HIV-1 clinical isolate 1) was > 1000 nM and the IC50 (HIV-1 clinical isolate 2; Human immunodeficiency virus 1) was 330 nM. The IC50 (HIV-1 clinical isolate 3; Human immunodeficiency virus 1) was > 1000 nM, the IC50 (HIV-1 clinical isolate 4; Human immunodeficiency virus 1) was 90 nM and the IC50 (HIV-1 clinical isolate 5; Human immunodeficiency virus 1) was 410 nM. The IC50 (HIV-1 clinical isolate 6) was > 1000 nM, the IC50 (HIV-1 clinical isolate 7) was > 1000 nM and the IC50 (HIV-1 clinical isolate 8; Human immunodeficiency virus 1) was > 1000 nM. The “antiviral activity against patient isolates with multiple mutations compared with wild type HIV strains (in words)” value [2] was “dramatically less potent”, the IC50 (HIV-1NL4-3) was 23 nM and the IC50 (HIV-1UIC-P62; [6]) was 110 nM. For the same compound, the IC50 (HIV-1APV-P30; [6]) was > 1000 nM.

Work on `Cc1cn([C@H]2C[C@H](N=[N+]=[N-])[C@@H](CO)O2)c(=O)[nH]c1=O` [AZT, 3′-azido-2′,3′-dideoxythymidine] yielded an IC50 (HIV-1Ba-L) of 0.011 ± 0.007 µM, an IC50 (HIV-1LAI; [3]) of 0.003 ± 0.0002 µM and an IC50 (HIV-1LAI; [4]) of 0.024 ± 0.003 µM. For the same compound, the IC50 (HIV-2EHO; [5]) was 0.003 ± 0.001 µM.
